Assays:
[1] = target: Beta-3 adrenergic receptor (Homo sapiens, UniProt P13945); experiment: DRUGMATRIX: Adrenergic beta3 radioligand binding (ligand: [125I] Cyanopindolol); assay type: cell membranes, HEK293, Membrane; conditions: hek293; Not Active = under 50% inhibition at 10 µM
[2] = target: Sigma non-opioid intracellular receptor 1 (Homo sapiens, UniProt Q99720); experiment: DRUGMATRIX: Sigma1 radioligand binding (ligand: [3H] Haloperidol); assay type: cell membranes, Jurkat, Membrane; conditions: Not Active = under 50% inhibition at 10 µM
Chain of Sigma non-opioid intracellular receptor 1 (Q99720 whole entry): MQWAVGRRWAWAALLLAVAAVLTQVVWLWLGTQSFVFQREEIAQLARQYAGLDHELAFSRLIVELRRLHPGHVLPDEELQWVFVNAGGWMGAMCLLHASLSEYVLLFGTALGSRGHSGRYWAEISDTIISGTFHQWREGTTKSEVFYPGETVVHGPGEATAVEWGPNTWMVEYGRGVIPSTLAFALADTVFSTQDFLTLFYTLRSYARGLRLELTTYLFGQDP

[3] = target: 5-hydroxytryptamine receptor 4 (Cavia porcellus, UniProt O70528); assay type: cell membranes, Dunkin-Hartley, Striatum, Membrane; note: in other assays of this panel Not Active means under 50% inhibition at 10 µM
Chain of 5-hydroxytryptamine receptor 4 (O70528 whole entry): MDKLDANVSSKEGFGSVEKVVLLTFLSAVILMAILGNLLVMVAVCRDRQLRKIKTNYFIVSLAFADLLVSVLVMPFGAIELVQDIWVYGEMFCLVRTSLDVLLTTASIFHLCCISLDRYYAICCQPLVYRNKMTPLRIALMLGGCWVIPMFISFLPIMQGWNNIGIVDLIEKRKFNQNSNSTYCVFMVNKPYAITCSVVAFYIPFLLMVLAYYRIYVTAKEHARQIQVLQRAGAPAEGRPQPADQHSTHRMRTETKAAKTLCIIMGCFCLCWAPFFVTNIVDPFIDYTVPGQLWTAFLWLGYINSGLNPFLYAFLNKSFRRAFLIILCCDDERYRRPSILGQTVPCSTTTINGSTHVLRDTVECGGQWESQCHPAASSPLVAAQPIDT

[4] = target: Mitogen-activated protein kinase 3 (Homo sapiens, UniProt P27361); experiment: DRUGMATRIX: Protein Serine/Threonine Kinase, ERK1 enzyme inhibition (substrate: Myelin Basic Protein); design: species or system Escherichia coli; conditions: Not Active = under 50% inhibition at 10 µM
Chain of Mitogen-activated protein kinase 3 (P27361 whole entry): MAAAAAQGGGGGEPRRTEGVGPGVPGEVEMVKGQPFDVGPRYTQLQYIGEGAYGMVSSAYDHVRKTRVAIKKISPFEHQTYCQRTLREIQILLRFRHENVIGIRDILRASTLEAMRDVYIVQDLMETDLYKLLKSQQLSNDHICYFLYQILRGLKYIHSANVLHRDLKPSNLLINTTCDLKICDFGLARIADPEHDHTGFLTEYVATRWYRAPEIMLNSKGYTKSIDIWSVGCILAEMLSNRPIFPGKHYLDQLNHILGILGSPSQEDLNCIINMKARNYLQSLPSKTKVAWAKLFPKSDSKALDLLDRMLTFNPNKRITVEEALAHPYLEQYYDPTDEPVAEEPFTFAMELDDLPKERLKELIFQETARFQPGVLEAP

[5] = target: Protein phosphatase 3 catalytic subunit alpha (Homo sapiens, UniProt Q08209); design: species or system Escherichia coli;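 note: inhibition of calcineurin (PP2B) enzyme activity, measured with DiFMUP as the substrate; in other assays of this panel Not Active means under 50% inhibition at 10 µM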
[6] = DRUGMATRIX: Atrial Natriuretic Factor (ANF) radioligand binding (ligand: [125I] ANF (rat)); assay type: cell membranes, Cavia porcellus, Dunkin-Hartley, Adrenal gland, Membrane; conditions: Not Active = under 50% inhibition at 10 µM

Chain of Beta-3 adrenergic receptor (P13945 whole entry): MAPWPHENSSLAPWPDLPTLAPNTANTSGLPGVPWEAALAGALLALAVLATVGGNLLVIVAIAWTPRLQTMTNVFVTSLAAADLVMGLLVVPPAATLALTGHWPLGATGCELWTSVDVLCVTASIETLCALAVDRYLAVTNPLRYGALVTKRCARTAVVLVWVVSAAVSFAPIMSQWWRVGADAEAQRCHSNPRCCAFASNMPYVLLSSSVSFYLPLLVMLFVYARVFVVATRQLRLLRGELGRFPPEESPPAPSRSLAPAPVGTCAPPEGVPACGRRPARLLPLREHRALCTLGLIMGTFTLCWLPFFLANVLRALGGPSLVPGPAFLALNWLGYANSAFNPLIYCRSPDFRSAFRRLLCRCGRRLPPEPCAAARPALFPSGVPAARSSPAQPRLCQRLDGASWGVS

SMILES	IC50 [1]	IC50 ([2]; jurkat)	IC50 [3]	IC50 [4]	IC50 [5]	IC50 [6]	Ki [6]	IC50 ([4]; read-out: IC50) [µM]	IC50 ([2]; read-out: IC50) [µM]	Ki ([2]; read-out: Ki) [µM]
Cc1cc2c(s1)Nc1ccccc1N=C2N1CCN(C)CC1 [OLANZAPINE]	Not Active	Not Active	Not Active	Not Active	Not Active					
CC1(C)[C@H](C(=O)O)N2C(=O)C[C@H]2S1(=O)=O [SULBACTAM]	Not Active	Not Active	Not Active	Not Active	Not Active	Not Active	Not Active			
Oc1ccc(/C=C/c2cc(O)cc(O)c2)cc1 [RESVERATROL]	Not Active	Not Active	Not Active	Not Active	Not Active	Not Active	Not Active			
O=C1CC[C@@]2(O)[C@H]3Cc4ccc(O)c5c4[C@@]2(CCN3CC2CC2)[C@H]1O5 [NALTREXONE]	Not Active	Not Active	Not Active	Not Active	Not Active	Not Active	Not Active			
Cc1nnc(NS(=O)(=O)c2ccc(N)cc2)s1 [SULFAMETHIZOLE]	Not Active	Not Active	Not Active	Not Active	Not Active	Not Active	Not Active			
C=CCc1ccc2c(c1)OCO2 [SAFROLE]	Not Active	Not Active	Not Active	Not Active	Not Active	Not Active	Not Active			
Cc1cn([C@H]2C=C[C@@H](CO)O2)c(=O)[nH]c1=O [STAVUDINE]	Not Active	Not Active	Not Active	Not Active	Not Active	Not Active	Not Active			
CC1=C(/C=C/C(C)=C/C=C/C(C)=C/C(=O)O)C(C)(C)CCC1 [TRETINOIN]	Not Active	Not Active	Not Active	Not Active	Not Active	Not Active	Not Active			
Nc1nc(N)c2nc(-c3ccccc3)c(N)nc2n1	Not Active	Not Active	Not Active	Not Active	Not Active	Not Active	Not Active			
CN1C(=O)OC(C)(C)C1=O [TRIMETHADIONE]	Not Active	Not Active	Not Active	Not Active	Not Active	Not Active	Not Active			
Cc1ccc(S(=O)(=O)NC(=O)NN2CCCCCC2)cc1 [TOLAZAMIDE]	Not Active	Not Active	Not Active	Not Active	Not Active	Not Active	Not Active			
O=C(O)c1cc(/N=N/c2ccc(S(=O)(=O)Nc3ccccn3)cc2)ccc1O [SULFASALAZINE]	Not Active	Not Active	Not Active	Not Active	Not Active	Not Active	Not Active			
CCN(CC)C(=S)SSC(=S)N(CC)CC	Not Active	Not Active	Not Active		Not Active	Not Active	Not Active	1.51		
CS(=O)(=O)c1ccc(C2=C(c3ccccc3)C(=O)OC2)cc1 [ROFECOXIB]	Not Active	Not Active	Not Active	Not Active	Not Active	Not Active	Not Active			
Cc1cnc(NC(=O)C2=C(O)c3ccccc3S(=O)(=O)N2C)s1 [MELOXICAM]	Not Active	Not Active	Not Active	Not Active	Not Active	Not Active	Not Active			
C1CCN2C[C@@H]3C[C@@H](CN4CCCC[C@@H]34)[C@H]2C1 [SPARTEINE]	Not Active	Not Active	Not Active	Not Active	Not Active	Not Active	Not Active			
CO[C@@H]1[C@@H](OC)[C@H](C)[C@@](O)(CC(=O)O)O[C@H]1[C@H](C)[C@H]1O[C@@]2(CC[C@@](C)([C@H]3CC[C@@](C)([C@@H]4O[C@@H]([C@H]5O[C@](C)(O)[C@H](C)C[C@@H]5C)C[C@@H]4O[C@@H]4C[C@H](OC)[C@@H](OC)[C@H](C)O4)O3)O2)C[C@H](O)[C@H]1C.N [MADURAMICIN]	Not Active	Not Active	Not Active	Not Active	Not Active	Not Active	Not Active			
CC[C@@]1(O)C(=O)OCc2c1cc1n(c2=O)Cc2cc3c(CN(C)C)c(O)ccc3nc2-1 [TOPOTECAN]	Not Active	Not Active	Not Active	Not Active	Not Active	Not Active	Not Active			
C#C[C@]1(O)CC[C@H]2[C@@H]3[C@H](C)CC4=C(CCC(=O)C4)[C@H]3CC[C@@]21C [TIBOLONE]	Not Active	Not Active	Not Active	Not Active	Not Active	Not Active	Not Active			
C[N+]1(C)[C@@H]2C[C@@H](OC(=O)[C@H](CO)c3ccccc3)C[C@H]1[C@@H]1O[C@@H]12.[Br-] [METHSCOPOLAMINE BROMIDE]	Not Active	Not Active	Not Active	Not Active	Not Active	Not Active	Not Active			
CC[C@H](C)[C@@H](CO[C@@H](Cc1ccccc1)C(=O)N[C@@H](CCS(C)(=O)=O)C(=O)OC(C)C)NC[C@@H](N)CS	Not Active	Not Active	Not Active	Not Active	Not Active	Not Active	Not Active			
CCN1CCCC1CNC(=O)c1cc(S(N)(=O)=O)ccc1OC (centres undefined) [SULPIRIDE]	Not Active	Not Active	Not Active	Not Active	Not Active	Not Active	Not Active			
CC[C@H](C)C(=O)O[C@H]1CCC=C2C=C[C@H](C)[C@H](CC[C@@H]3C[C@@H](O)CC(=O)O3)[C@H]21 [MEVASTATIN]	Not Active	Not Active	Not Active	Not Active	Not Active	Not Active	Not Active			
C[C@]12CCC(=O)C[C@@H]1CC[C@@H]1[C@@H]2CC[C@]2(C)[C@@H](O)CC[C@@H]12 [STANOLONE]	Not Active	Not Active	Not Active	Not Active	Not Active	Not Active	Not Active			
CC(N)C12CC3CC(CC(C3)C1)C2 (centres undefined) [RIMANTADINE]	Not Active	Not Active	Not Active	Not Active	Not Active	Not Active	Not Active			
CNCCCC12CCC(c3ccccc31)c1ccccc12 [MAPROTILINE]	Not Active	Not Active	Not Active	Not Active	Not Active					
CN(C)CCC=C1c2ccccc2COc2ccccc21 [DOXEPIN]	Not Active		Not Active	Not Active	Not Active				0.631	0.265

Reference: ChEMBL document CHEMBL1909046, “DrugMatrix in vitro pharmacology data”
